The target in the assay is HCV NS5B polymerase (Hepatitis C virus genotype 1b, UniProt P26663). The assay can be described thus: biochemical. The note with it: HCV polymerase inhibition, 50 nM enzyme, 2 h at room temperature, FlashPlate [α-33P]GTP incorporation. As for the experimental part:
NS5B Polymerase Inhibition Assay (IC50)
Compounds were tested for HCV polymerase inhibition. Assays were performed in a 96-well streptavidin-coated FlashPlate using 50 nM enzyme, 0.5 μCi of [α-^33P]GTP, 0.6 μM GTP, and 50 nM 5′biotinylated oligo (rG13)/poly rC in 20 mM Tris-HCl, pH 7.5, 5 mM MgCl2, 20 mM NaCl, 5 mM dithiothreitol, and 0.1 g/L BSA. The reaction was stopped by aspiration after 2 h at room temperature and the plate was washed several times. After washing, incorporated radioactivity was counted using a Microbeta scintillation counter.

pIC50: −log10 of the molar value. A value given as a limit tells only on which side of the number the result lay.

Chain of HCV NS5B polymerase (P26663 2420-3010): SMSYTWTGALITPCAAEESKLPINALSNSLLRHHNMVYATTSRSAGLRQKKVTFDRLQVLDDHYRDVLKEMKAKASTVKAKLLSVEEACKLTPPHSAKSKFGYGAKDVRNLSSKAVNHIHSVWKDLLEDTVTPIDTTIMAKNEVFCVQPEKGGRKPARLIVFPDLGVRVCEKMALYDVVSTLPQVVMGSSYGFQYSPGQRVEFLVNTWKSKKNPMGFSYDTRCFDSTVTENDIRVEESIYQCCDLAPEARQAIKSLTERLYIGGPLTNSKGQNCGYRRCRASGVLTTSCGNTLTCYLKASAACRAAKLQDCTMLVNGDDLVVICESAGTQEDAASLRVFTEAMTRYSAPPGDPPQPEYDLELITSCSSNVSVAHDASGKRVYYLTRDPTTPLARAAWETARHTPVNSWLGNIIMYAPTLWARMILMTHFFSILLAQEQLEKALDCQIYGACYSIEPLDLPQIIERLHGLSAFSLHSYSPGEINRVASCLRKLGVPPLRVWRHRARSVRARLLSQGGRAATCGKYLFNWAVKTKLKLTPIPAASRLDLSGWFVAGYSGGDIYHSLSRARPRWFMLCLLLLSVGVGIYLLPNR

Turning to `CS(=O)(=O)Nc1ccc2c(c1)S(=O)(=O)N=C(c1c(O)c(-c3cccs3)nn(Cc3ccc(F)c(Cl)c3)c1=O)N2` [N-{3-[2-(3-Chloro-4-fluoro-benzyl)-5-hydroxy-3-oxo-6-thiophen-2-yl-2,3-dihydro-pyridazin-4-yl]-1,1-dioxo-1,2-dihydro-1λ^6-benzo[1,2,4]thiadiazin-7-yl}-methanesulfonamide], the pIC50 was greater than 7.00.

The compound `CS(=O)(=O)Nc1ccc2c(c1)S(=O)(=O)NC(c1c(O)c(-c3cncs3)nn(Cc3ccc(F)cc3)c1=O)=N2` [N-{3-[2-(4-Fluoro-benzyl)-5-hydroxy-3-oxo-6-thiazol-5-yl-2,3-dihydro-pyridazin-4-yl]-1,1-dioxo-1,2-dihydro-1λ^6-benzo[1,2,4]thiadiazin-7-yl}-methanesulfonamide] gave a pIC50 greater than 7.00.

The compound `CS(=O)(=O)Nc1ccc2c(c1)S(=O)(=O)N=C(c1c(O)c(-c3cccs3)nn(Cc3ccc(F)cc3)c1=O)N2` [N-{3-[2-(4-Fluoro-benzyl)-5-hydroxy-3-oxo-6-thiophen-2-yl-2,3-dihydro-pyridazin-4-yl]-1,1-dioxo-1,2-dihydro-1λ^6-benzo[1,2,4]thiadiazin-7-yl}-methanesulfonamide] had a pIC50 greater than 7.00.

As for `CN1C(c2c(O)c(-c3cccs3)nn(Cc3ccc(F)cc3)c2=O)=NS(=O)(=O)c2cc(NS(C)(=O)=O)ccc21` [N-{3-[2-(4-Fluoro-benzyl)-5-hydroxy-3-oxo-6-thiophen-2-yl-2,3-dihydro-pyridazin-4-yl]-4-methyl-1,1-dioxo-1,4-dihydro-1λ^6-benzo[1,2,4]thiadiazin-7-yl}-methanesulfonamide], the pIC50 is 5.00 to 6.00.

For the compound `CN(c1ccc2c(c1)S(=O)(=O)NC(c1c(O)c(CC(C)(C)C)nn(CC3CCC3)c1=O)=N2)S(C)(=O)=O` [N-{3-[2-Cyclobutylmethyl-6-(2,2-dimethyl-propyl)-5-hydroxy-3-oxo-2,3-dihydro-pyridazin-4-yl]-1,1-dioxo-1,2-dihydro-1λ^6-benzo[1,2,4]thiadiazin-7-yl}-N-methyl-methanesulfonamide], the pIC50 is 5.00 to 6.00.

Regarding `CCCC(C)n1nc(-c2cccs2)c(O)c(C2=NS(=O)(=O)c3cc(NS(C)(=O)=O)ccc3N2)c1=O` (stereo not drawn) [N-{3-[5-Hydroxy-2-(1-methyl-butyl)-3-oxo-6-thiophen-2-yl-2,3-dihydro-pyridazin-4-yl]-1,1-dioxo-1,2-dihydro-1λ^6-benzo[1,2,4]thiadiazin-7-yl}-methanesulfonamide], the pIC50 was 6.00 to 7.00.

As for `COCCn1nc(-c2cccs2)c(O)c(C2=NS(=O)(=O)c3cc(NS(C)(=O)=O)ccc3N2)c1=O` [N-{3-[5-Hydroxy-2-(2-methoxy-ethyl)-3-oxo-6-thiophen-2-yl-2,3-dihydro-pyridazin-4-yl]-1,1-dioxo-1,2-dihydro-1λ^6-benzo[1,2,4]thiadiazin-7-yl}-methanesulfonamide], the pIC50 is greater than 7.00.

On to `COC(C)(C)CCn1nc(-c2cccs2)c(O)c(C2=NS(=O)(=O)c3cc(NS(C)(=O)=O)ccc3N2)c1=O` [N-{3-[5-Hydroxy-2-(3-methoxy-3-methyl-butyl)-3-oxo-6-thiophen-2-yl-2,3-dihydro-pyridazin-4-yl]-1,1-dioxo-1,2-dihydro-1λ^6-benzo[1,2,4]thiadiazin-7-yl}-methanesulfonamide], for which the pIC50 is greater than 7.00.

The compound `CC(C)CCn1nc(-c2cc[nH]c2)c(O)c(C2=Nc3ccc(NS(C)(=O)=O)cc3S(=O)(=O)N2)c1=O` [N-{3-[5-Hydroxy-2-(3-methyl-butyl)-3-oxo-6-(1H-pyrrol-3-yl)-2,3-dihydro-pyridazin-4-yl]-1,1-dioxo-1,2-dihydro-1λ^6-benzo[1,2,4]thiadiazin-7-yl}-methanesulfonamide] had a pIC50 greater than 7.00.

As for `C/C(=C\c1nn(CCC(C)C)c(=O)c(C2=NS(=O)(=O)c3cc(NS(C)(=O)=O)ccc3N2)c1O)C(F)(F)F` [N-{3-[5-Hydroxy-2-(3-methyl-butyl)-3-oxo-6-(3,3,3-trifluoro-2-methyl-propenyl)-2,3-dihydro-pyridazin-4-yl]-1,1-dioxo-1,2-dihydro-1λ^6-benzo[1,2,4]thiadiazin-7-yl}-methanesulfonamide], the pIC50 was 6.00 to 7.00.

Compound `CC(C)CCn1nc(-c2ccccc2)c(O)c(C2=Nc3ccc(N(C)S(C)(=O)=O)cc3S(=O)(=O)N2)c1=O` [N-{3-[5-Hydroxy-2-(3-methyl-butyl)-3-oxo-6-phenyl-2,3-dihydro-pyridazin-4-yl]-1,1-dioxo-1,2-dihydro-1λ^6-benzo[1,2,4]thiadiazin-7-yl}-N-methyl-methanesulfonamide] gave a pIC50 of 5.00 to 6.00.

On to `CC(C)CCn1nc(-c2ccccc2)c(O)c(C2=Nc3ccc(NS(C)(=O)=O)cc3S(=O)(=O)N2)c1=O` [N-{3-[5-Hydroxy-2-(3-methyl-butyl)-3-oxo-6-phenyl-2,3-dihydro-pyridazin-4-yl]-1,1-dioxo-1,2-dihydro-1λ^6-benzo[1,2,4]thiadiazin-7-yl}-methanesulfonamide], for which the pIC50 is greater than 7.00.

The compound `CC(C)CCn1nc(-c2cncs2)c(O)c(C2=NS(=O)(=O)c3cc(NS(C)(=O)=O)ccc3N2)c1=O` [N-{3-[5-Hydroxy-2-(3-methyl-butyl)-3-oxo-6-thiazol-5-yl-2,3-dihydro-pyridazin-4-yl]-1,1-dioxo-1,2-dihydro-1λ^6-benzo[1,2,4]thiadiazin-7-yl}-methanesulfonamide] gave a pIC50 greater than 7.00.

`CC(C)CCn1nc(-c2cccs2)c(O)c(C2=Nc3ccc(N(C(C)C)S(C)(=O)=O)cc3S(=O)(=O)N2)c1=O` [N-{3-[5-Hydroxy-2-(3-methyl-butyl)-3-oxo-6-thiophen-2-yl-2,3-dihydro-pyridazin-4-yl]-1,1-dioxo-1,2-dihydro-1λ^6-benzo[1,2,4]thiadiazin-7-yl}-N-isopropyl-methanesulfonamide] showed a pIC50 of 5.00 to 6.00.

`CC(C)CCn1nc(-c2cccs2)c(O)c(C2=NS(=O)(=O)c3cc(N(C)S(C)(=O)=O)ccc3N2C)c1=O` [N-{3-[5-Hydroxy-2-(3-methyl-butyl)-3-oxo-6-thiophen-2-yl-2,3-dihydro-pyridazin-4-yl]-4-methyl-1,1-dioxo-1,4-dihydro-1λ^6-benzo[1,2,4]thiadiazin-7-yl}-N-methyl-methanesulfonamide] had a pIC50 of 5.00 to 6.00.

Consider `CC(C)CCn1nc(-c2ccn(C)c2)c(O)c(C2=Nc3ccc(NS(C)(=O)=O)cc3S(=O)(=O)N2)c1=O` [N-{3-[5-Hydroxy-2-(3-methyl-butyl)-6-(1-methyl-1H-pyrrol-3-yl)-3-oxo-2,3-dihydro-pyridazin-4-yl]-1,1-dioxo-1,2-dihydro-1λ^6-benzo[1,2,4]thiadiazin-7-yl}-methanesulfonamide], for which the pIC50 was greater than 7.00.

The compound `CC(C)=Cc1nn(CCC(C)C)c(=O)c(C2=NS(=O)(=O)c3cc(NS(C)(=O)=O)ccc3N2)c1O` [N-{3-[5-Hydroxy-2-(3-methyl-butyl)-6-(2-methyl-propenyl)-3-oxo-2,3-dihydro-pyridazin-4-yl]-1,1-dioxo-1,2-dihydro-1λ^6-benzo[1,2,4]thiadiazin-7-yl}-methanesulfonamide] showed a pIC50 greater than 7.00.

Compound `CCC(C)CCn1nc(-c2cccs2)c(O)c(C2=NS(=O)(=O)c3cc(NS(C)(=O)=O)ccc3N2)c1=O` (stereo not drawn) [N-{3-[5-Hydroxy-2-(3-methyl-pentyl)-3-oxo-6-thiophen-2-yl-2,3-dihydro-pyridazin-4-yl]-1,1-dioxo-1,2-dihydro-1λ^6-benzo[1,2,4]thiadiazin-7-yl}-methanesulfonamide] showed a pIC50 greater than 7.00.

Broadly, the pIC50 is the negative decadic logarithm of the IC50, by convention in mol/L.

Source of the values: US20080275032A1, “Pyridazinone compounds” (priority 2006, published 2008).
